Experimental data as given in patent publication US20190119200A1, “TERTIARY AMIDES AND METHOD OF USE” (AbbVie Inc., priority 2016, published 2019).

Assays:
Format in all cases: cell-based
[1] = target: T1, LPAR1 (Homo sapiens, UniProt Q92633); assay: LPAR1 FLIPR Assay; conditions: U2OS cells stably expressing LPAR1, LPA (EC80), Calcium 6 FLIPR dye; for Emax: read-out: Maximum Inhibition
T1 construct: host or cells: U2OS
Outline: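 Calcium flux read-out (515-575 nm, FLIPR) in LPAR1-expressing U2OS cells after LPA challenge at EC80, given 3 min after compound addition; cells carried Calcium 6 dye loaded 2 h at 37° C. Eleven-point 3-fold dilutions were fitted with a four-parameter Hill equation for IC50.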

[2] = target: T1, LPAR1; assay: IP-One HTRF Assay; conditions: U2OS cells stably expressing LPAR1, LPA stimulation, IP-One Tb HTRF kit; for Emax: read-out: Maximum Inhibition
Protocol: U2OS cells stably expressing LPAR1 (Life Technologies #K1519A) were plated at 20000 cells/well in growth medium (McCoy's 5A(Life Technologies #16600-082)) with 10% dFBS (Life Technologies #26400-036), 0.1 mM non-essential amino acids, 25 mM HEPES, 1 mM sodium pyruvate, 1% penicillin/streptomycin, 50 μg/mL hygromycin, and 100 μg/mL Geneticin® in tissue culture treated 384-well white plates (Greiner #781080) in humidified 5% CO2 at 37° C. overnight. On the day of the assay, culture medium was replaced with 30 μL/well of McCoy's 5A with 0.1% BSA. Cells were incubated in humidified 5% CO2 at 37° C. for 3 more hours. Compounds were 3-fold serial diluted from 2 mM for 11-points using dimethyl sulfoxide. 1 μL of compound in DMSO was diluted in 50 μL stimulation buffer from an IP-One Tb HTRF kit (Cisbio #62IPAPEB) immediately before assay. 15 μL/well of 1.33× compound in stimulation buffer was added to cells after removal of culture medium. After 20 minutes of incubation at 37° C., 5 μL/well of 8 μM LPA diluted in stimulation buffer with 0.1% fatty acid free BSA was added to cells. […]. To EC100 wells were added 4×20 μM LPA. To the cells were added 5 μL/well IP1-d2 conjugate and 5 μLwell IP1-K antibody after 2 hours of incubation at 37° C. Cells were incubated at room temperature for 1 hour (protected from light). The plate was then read at 665 nm and 615 nm using an EnVision® Multilabel Plate Reader. IC50 values were calculated from curve fits of the ratio data using a four-parameter logistic Hill equation (Assay Explorer 3.3 Client).

[3] = test system: LPA-induced MCP-1 in NRK-49F cells; assay: LPA-induced MCP-1 AlphaLISA assay; conditions: Rattus norvegicus, final LPA 10 μM, 7 hours; for Emax: read-out: Maximum Inhibition
Outline: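 NRK-49F rat fibroblasts, serum-starved overnight, pretreated with compound for 30 min at 37 °C (1% DMSO final), then stimulated with 10 μM LPA final. MCP-1 in the supernatant was measured by mouse/rat CCL2 AlphaLISA. IC50 values came from four-parameter logistic fits of the ratio data.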

T1 sequence (Q92633 whole entry): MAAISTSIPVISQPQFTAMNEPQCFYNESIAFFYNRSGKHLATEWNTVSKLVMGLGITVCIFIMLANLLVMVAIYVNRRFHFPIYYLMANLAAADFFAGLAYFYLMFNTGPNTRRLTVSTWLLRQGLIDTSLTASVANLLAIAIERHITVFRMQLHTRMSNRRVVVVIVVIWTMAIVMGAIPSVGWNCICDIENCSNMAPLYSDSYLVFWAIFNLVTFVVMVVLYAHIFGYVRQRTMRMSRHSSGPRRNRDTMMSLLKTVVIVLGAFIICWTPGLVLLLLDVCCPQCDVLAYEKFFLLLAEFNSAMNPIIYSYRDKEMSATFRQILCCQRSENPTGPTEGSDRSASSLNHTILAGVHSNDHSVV

**Q.** What does the source list for `COc1cc(C(=O)N(CCCCC(=O)O)CCCc2ccc(C)o2)cc(OC)c1C` [Example 138, 5-{(3,5-dimethoxy-4-methylbenzoyl)[3-(5-methylfuran-2-yl)propyl]amino}pentanoic Acid]?
**A.** IC50 [1]: 13 nM; Emax [1]: 89%; IC50 [2]: 201 nM; Emax [2]: 87%; IC50 [3]: 1010 nM; Emax [3]: 85%

**Q.** With `COc1cc(C(=O)N(CCCc2ccccc2)CC(=O)NC2(C(=O)O)CCCCC2)cc(OC)c1C` [Example 2, 1-{[N-(3,5-dimethoxy-4-methylbenzoyl)-N-(3-phenylpropyl)glycyl]amino}cyclohexane-1-carboxylic Acid] as the compound, how does the IC50 [1] read?
**A.** Its IC50 is 114 nM.

**Q.** And the Emax [1]?
**A.** Its Emax is 72%.

**Q.** And the IC50 [2]?
**A.** The IC50 was 4830 nM.

**Q.** What about the Emax [2] of the same compound?
**A.** Its Emax is 84%.

**Q.** `COc1cc(C(=O)N(CCCCC(=O)O)CCCc2cccc(C)c2)cc(OC)c1C` [Example 11, 5-{(3,5-dimethoxy-4-methylbenzoyl)[3-(3-methylphenyl)propyl]amino}pentanoic Acid] was tested. Which IC50 [1] did it give?
**A.** The IC50 was 15 nM.

**Q.** And the Emax [1]?
**A.** The Emax was 96%.

**Q.** What about the IC50 [2] of the same compound?
**A.** The IC50 was 253 nM.

**Q.** And the Emax [2]?
**A.** Its Emax is 88%.

**Q.** And the IC50 [3]?
**A.** Its IC50 is 247 nM.

**Q.** What about the Emax [3] of the same compound?
**A.** The Emax was 91%.

**Q.** Which IC50 [1] does the source give for `CNS(=O)(=O)NC(=O)CCCCN(CCCc1ccccc1)C(=O)c1cc(OC)cc(OC)c1` [Example 74, 3,5-dimethoxy-N-{5-[(methylsulfamoyl)amino]-5-oxopentyl}-N-(3-phenylpropyl)benzamide] here?
**A.** The IC50 was 79 nM.

**Q.** And the Emax [1]?
**A.** The Emax was 67%.

**Q.** What about the IC50 [2] of the same compound?
**A.** The IC50 was 1180 nM.

**Q.** And the Emax [2]?
**A.** The Emax was 63%.

**Q.** What about the IC50 [3] of the same compound?
**A.** Its IC50 is 3880 nM.

**Q.** And the Emax [3]?
**A.** The Emax was 77%.

**Q.** Which IC50 [1] does the source give for `CNS(=O)(=O)NC(=O)CCN(CCCc1ccccc1)C(=O)c1cc(OC)c(C)c(OC)c1` [Example 68, 3,5-dimethoxy-4-methyl-N-{3-[(methylsulfamoyl)amino]-3-oxopropyl}-N-(3-phenylpropyl)benzamide] here?
**A.** Its IC50 is 902 nM.

**Q.** And the Emax [1]?
**A.** The Emax was 52%.

**Q.** And the IC50 [2]?
**A.** The IC50 was 13300 nM.

**Q.** What about the Emax [2] of the same compound?
**A.** The Emax was 67%.

**Q.** Which IC50 [1] does the source give for `COc1cc(C(=O)N(CCCc2ccccc2)CC(=O)N[C@@H](Cc2cccs2)C(=O)O)cc(OC)c1C` [Example 47, N-(3,5-dimethoxy-4-methylbenzoyl)-N-(3-phenylpropyl)glycyl-3-thiophen-2-ylalanine] here?
**A.** The IC50 was 79 nM.

**Q.** What about the Emax [1] of the same compound?
**A.** Its Emax is 88%.

**Q.** And the IC50 [3]?
**A.** Its IC50 is 4700 nM.

**Q.** What about the Emax [3] of the same compound?
**A.** The Emax was 58%.

**Q.** How did the IC50 [1] turn out when `COc1cc(C(=O)N(CCCc2ccc(C)o2)CCCC(C)(C)C(=O)O)cc(OC)c1C` [Example 180, 5-{(3,5-dimethoxy-4-methylbenzoyl)[3-(5-methylfuran-2-yl)propyl]amino}-2,2-dimethylpentanoic Acid] was run?
**A.** The IC50 was 48 nM.

**Q.** And the Emax [1]?
**A.** The Emax was 100%.

**Q.** What about the IC50 [3] of the same compound?
**A.** Its IC50 is 105 nM.

**Q.** And the Emax [3]?
**A.** Its Emax is 93%.

**Q.** With `COc1cc(C(=O)N(CCCOC(=O)NS(=O)(=O)c2ccc(F)cc2)CCCc2ccccc2)cc(OC)c1C` [Example 145, 3-[(3,5-dimethoxy-4-methylbenzoyl)(3-phenylpropyl)amino]propyl (4-fluorobenzene-1-sulfonyl)carbamate] as the compound, how does the IC50 [1] read?
**A.** Its IC50 is 437 nM.

**Q.** What about the Emax [1] of the same compound?
**A.** Its Emax is 51%.

**Q.** What about the IC50 [3] of the same compound?
**A.** Its IC50 is 3960 nM.

**Q.** What about the Emax [3] of the same compound?
**A.** Its Emax is 59%.

**Q.** For `COc1cc(C(=O)N(CCCOC(=O)NS(C)(=O)=O)CCCc2ccccc2)cc(OC)c1C` [Example 186, 3-[(3,5-dimethoxy-4-methylbenzoyl)(3-phenylpropyl)amino]propyl (methanesulfonyl)carbamate], which IC50 [1] is on record?
**A.** Its IC50 is 65 nM.

**Q.** And the Emax [1]?
**A.** The Emax was 83%.

**Q.** And the IC50 [3]?
**A.** The IC50 was 7050 nM.

**Q.** And the Emax [3]?
**A.** The Emax was 54%.

**Q.** With `COc1cc(C(=O)N(CCCc2ccc(C)o2)CCCC(C)C(=O)O)cc(OC)c1C` (stereo not drawn) [Example 179, 5-{(3,5-dimethoxy-4-methylbenzoyl)[3-(5-methylfuran-2-yl)propyl]amino}-2-methylpentanoic Acid] as the compound, how does the IC50 [1] read?
**A.** The IC50 was 46 nM.

**Q.** What about the Emax [1] of the same compound?
**A.** The Emax was 97%.

**Q.** What about the IC50 [3] of the same compound?
**A.** Its IC50 is 1980 nM.

**Q.** And the Emax [3]?
**A.** The Emax was 74%.

**Q.** How did the IC50 [1] turn out when `COc1cc(C(=O)N(CCCCC(=O)NS(=O)(=O)C(C)C)CCCc2ccccc2)cc(OC)c1C` [Example 124, 3,5-dimethoxy-4-methyl-N-{5-oxo-5-[(propane-2-sulfonyl)amino]pentyl}-N-(3-phenylpropyl)benzamide] was run?
**A.** The IC50 was 59 nM.

**Q.** What about the Emax [1] of the same compound?
**A.** The Emax was 92%.

**Q.** What about the IC50 [3] of the same compound?
**A.** Its IC50 is 1150 nM.

**Q.** And the Emax [3]?
**A.** The Emax was 88%.

**Q.** What does the source list for `COc1cc(C(=O)N(CCCCC(=O)O)CCCc2ccccc2)cc2oc(C)cc12` [Example 31, 5-[(4-methoxy-2-methyl-1-benzofuran-6-carbonyl)(3-phenylpropyl)amino]pentanoic Acid]?
**A.** IC50 [1]: 45 nM; Emax [1]: 87%; IC50 [3]: 5320 nM; Emax [3]: 68%

**Q.** How did the IC50 [1] turn out when `COc1ccc(C(C)(C)C(=O)N(CCCCC(=O)O)CCCc2ccccc2)cc1` [Example 85, 5-{[2-(4-methoxyphenyl)-2-methylpropanoyl](3-phenylpropyl)amino}pentanoic Acid] was run?
**A.** The IC50 was over 30000 nM.

**Q.** What about the Emax [1] of the same compound?
**A.** Its Emax is 14%.

**Q.** What about the IC50 [3] of the same compound?
**A.** Its IC50 is over 10000 nM.

**Q.** What about the Emax [3] of the same compound?
**A.** The Emax was 12%.

**Q.** For `COc1cc(C(=O)N(CCCc2ccccc2)CCCC(C)(C)C(=O)NS(C)(=O)=O)cc(OC)c1C` [Example 162, N-{5-[(methanesulfonyl)amino]-4,4-dimethyl-5-oxopentyl}-3,5-dimethoxy-4-methyl-N-(3-phenylpropyl)benzamide], which IC50 [1] is on record?
**A.** Its IC50 is 76 nM.

**Q.** What about the Emax [1] of the same compound?
**A.** The Emax was 100%.

**Q.** What about the IC50 [3] of the same compound?
**A.** Its IC50 is 7 nM.

**Q.** And the Emax [3]?
**A.** The Emax was 94%.

**Q.** What does the source list for `CCS(=O)(=O)NC(=O)CCCCN(CCCc1ccccc1)C(=O)c1cc(OC)c(C)c(OC)c1` [Example 123, N-{5-[(ethanesulfonyl)amino]-5-oxopentyl}-3,5-dimethoxy-4-methyl-N-(3-phenylpropyl)benzamide]?
**A.** IC50 [1]: 46 nM; Emax [1]: 94%; IC50 [3]: 793 nM; Emax [3]: 85%

**Q.** Which results are given for `COc1cc(C(=O)N(CCCc2cc(F)cc(F)c2)CCSCC(=O)O)cc(OC)c1C` [Example 125, [(2-{[3-(3,5-difluorophenyl)propyl](3,5-dimethoxy-4-methylbenzoyl)amino}ethyl)sulfanyl]acetic Acid]?
**A.** IC50 [1]: > 10000 nM; Emax [1]: 32%; IC50 [3]: > 10000 nM; Emax [3]: 53%

**Q.** Which results are given for `COc1cc(C(=O)N(CCCc2ccccc2)C[C@H](O)CCC(=O)O)cc(OC)c1C` [Example 120, (4R)-5-[(3,5-dimethoxy-4-methylbenzoyl)(3-phenylpropyl)amino]-4-hydroxypentanoic Acid]?
**A.** IC50 [1]: 39 nM; Emax [1]: 81%; IC50 [3]: 5240 nM; Emax [3]: 65%

**Q.** For `COc1cc(OC)cc(C(=O)N(CCCCC(=O)O)CCCc2c(F)cccc2F)c1` [Example 137, 5-{[3-(2,6-difluorophenyl)propyl](3,5-dimethoxybenzoyl)amino}pentanoic Acid], which IC50 [1] is on record?
**A.** The IC50 was 92 nM.

**Q.** What about the Emax [1] of the same compound?
**A.** Its Emax is 64%.

**Q.** And the IC50 [3]?
**A.** The IC50 was over 10000 nM.

**Q.** What about the Emax [3] of the same compound?
**A.** Its Emax is 28%.

**Q.** What does the source list for `COc1cc(C(=O)N(CCCCC(=O)O)CCC(C)c2ccccc2)cc(OC)c1C` (stereo not drawn) [Example 182, 5-[(3,5-dimethoxy-4-methylbenzoyl)(3-phenylbutyl)amino]pentanoic Acid]?
**A.** IC50 [1]: 47 nM; Emax [1]: 91%; IC50 [3]: 994 nM; Emax [3]: 85%

**Q.** Which results are given for `COc1cc(C(=O)N(CCCc2ccccc2Cl)CCSCC(=O)O)cc(OC)c1C` [Example 112, [(2-{[3-(2-chlorophenyl)propyl](3,5-dimethoxy-4-methylbenzoyl)amino}ethyl)sulfanyl]acetic Acid]?
**A.** IC50 [1]: 315 nM; Emax [1]: 77%; IC50 [3]: 996 nM; Emax [3]: 78%

**Q.** `COc1cc(C(=O)N(CCCc2ccccc2)CCCC(O)C(=O)O)cc(OC)c1C1CC1` (stereo not drawn) [Example 165, 5-[(4-cyclopropyl-3,5-dimethoxybenzoyl)(3-phenylpropyl)amino]-2-hydroxypentanoic Acid] was tested. Which IC50 [1] did it give?
**A.** The IC50 was 45 nM.

**Q.** What about the Emax [1] of the same compound?
**A.** The Emax was 83%.

**Q.** What about the IC50 [3] of the same compound?
**A.** Its IC50 is 2730 nM.

**Q.** And the Emax [3]?
**A.** The Emax was 70%.
